From patent publication US10517889B2, “Modulators of SMAD7 expression” (Ionis Pharmaceuticals, Inc., priority 2017, dated 2019)
Strand notation (5' to 3'): a small letter for the sugar, then the base; units joined by * are phosphorothioate-linked, units joined directly phosphodiester-linked; [ ] holds rarer units or linkages, { } end groups; capitals alone tell only the bases. e = 2'-O-(2-methoxyethyl) (MOE); [5mC] = 5-methylcytosine; d = 2'-deoxy (DNA)

System: human SMAD7 mRNA
Assay: Antisense inhibition of human SMAD7 mRNA expression in Hep3B cells by 5-10-5 MOE gapmers, single concentration, electroporation, RT-PCR (Example 1, Study 1 and 2)
Assay type: cell-based
Details: for % Inhibition: Study 2, electroporation with 15,000 nM antisense oligonucleotide; for % Inhibition of SMAD7 mRNA: electroporation with 15,000 nM antisense oligonucleotide (Study 2)
Method: Antisense oligonucleotides were designed to target human SMAD7 mRNA and were tested for their effects on SMAD7 mRNA expression in vitro. Cultured Hep3B cells at a density of 20,000 cells per well were transfected using electroporation with antisense oligonucleotide ION 483663 (a 5-10-5 MOE gapmer), the sequence of which overlaps with ION 28453 (a 4-10-4 MOE gapmer) was included in these assays for comparison. ION 28453 has been previously disclosed in U.S. Pat. No. 6,159,697). After a treatment period of approximately 24 hours, RNA was isolated from the cells and SMAD7 mRNA levels were measured by quantitative real-time PCR. Primer probe set RTS5062 (forward sequence […], designated herein as SEQ ID NO: 11; reverse sequence […], designated herein as SEQ ID NO: 12; probe sequence […], designated herein as SEQ ID NO: 13) was used to measure human SMAD7 mRNA levels. SMAD7 mRNA levels were adjusted according to total RNA content, as measured by RIBOGREEN®. Results are presented as percent inhibition of SMAD7 mRNA expression, relative to untreated control cells.
The newly designed chimeric antisense oligonucleotides in the Tables below were designed as 5-10-5 MOE gapmers. The gapmers are 20 nucleosides in length, wherein the central gap segment comprises of ten 2′-deoxynucleosides and is flanked by wing segments on the 5′ direction and the 3′ direction comprising five nucleosides each. Each nucleoside in the 5′ wing segment and each nucleoside in the 3′ wing segment has a 2′-MOE modification. The internucleoside linkages throughout each gapmer are phosphorothioate (P═S) linkages. All cytosine residues throughout each gapmer are 5-methylcytosines.
“Start site” indicates the 5′-most nucleoside to which the gapmer is targeted in the human gene sequence. “Stop site” indicates the 3′-most nucleoside to which the gapmer is targeted human gene sequence.
Cultured Hep3B cells at a density of 20,000 cells per well were transfected using electroporation with 5,000 nM antisense oligonucleotide.
Cultured Hep3B cells at a density of 20,000 cells per well were transfected using electroporation with 15,000 nM antisense oligonucleotide. The antisense oligonucleotides were tested in a series of experiments that had similar culture conditions as described below.
Some of the oligonucleotides presented were complementary to SMAD7 mRNA sequences RefSeqNo. NM_001190821.1 (designated herein as SEQ ID NO: 3) or RefSeqNo. NM_001190822.1 (designated herein as SEQ ID NO: 4), and are presented in a separate table shown below.

[1] = 5-10-5 MOE gapmers targeting SEQ ID NO: 1 and 2
[2] = electroporation, 15,000 nM antisense oligonucleotide (Study 2), 5-10-5 MOE gapmers targeting SEQ ID NO: 1 and 2
[3] = electroporation, 5,000 nM, approximately 24 hours, relative to untreated control cells, gapmers targeting SEQ ID NO: 1 and 2
[4] = electroporation, 15,000 nM, approximately 24 hours, relative to untreated control cells, gapmers targeting SEQ ID NO: 1 and 2

Substance	% Inhibition [1]	% inhibition of SMAD7 mRNA expression [2]	further results
771377 (antisense eT*eA*eA*eG*e[5mC]*dA*d[5mC]*dG*d[5mC]*dT*d[5mC]*dT*dA*dA*dA*e[5mC]*eA*eG*e[5mC]*eA) [compound 771377]	0%		
771378 (antisense eA*eT*e[5mC]*eT*eT*dT*dA*dA*dG*d[5mC]*dA*d[5mC]*dG*d[5mC]*dT*e[5mC]*eT*eA*eA*eA) [compound 771378]	22%		
771379 (antisense eG*eA*eT*e[5mC]*e[5mC]*dA*dT*d[5mC]*dT*dT*dT*dA*dA*dG*d[5mC]*eA*e[5mC]*eG*e[5mC]*eT) [compound 771379]		0%	% Inhibition of SMAD7 mRNA [1]: 21%
771380 (antisense eA*e[5mC]*e[5mC]*eA*eA*dG*dA*dT*d[5mC]*d[5mC]*dA*dT*d[5mC]*dT*dT*eT*eA*eA*eG*e[5mC]) [compound 771380]		0%	
771381 (antisense eA*eA*eA*eA*e[5mC]*dA*d[5mC]*d[5mC]*dA*dA*dG*dA*dT*d[5mC]*d[5mC]*eA*eT*e[5mC]*eT*eT) [compound 771381]		0%	
771382 (antisense eA*eA*eA*eT*eA*dA*dA*dA*dA*d[5mC]*dA*d[5mC]*d[5mC]*dA*dA*eG*eA*eT*e[5mC]*e[5mC]) [compound 771382]	0%		% inhibition of SMAD7 mRNA expression [3]: 55%
771383 (antisense eT*eA*e[5mC]*eA*e[5mC]*dA*dA*dA*dT*dA*dA*dA*dA*dA*d[5mC]*eA*e[5mC]*e[5mC]*eA*eA) [compound 771383]	0%		
771384 (antisense eT*eG*e[5mC]*eT*eG*dT*dG*dG*dA*dT*dT*dT*dG*dA*dA*eA*eA*eG*eG*eG) [compound 771384]			% inhibition of SMAD7 mRNA expression [4]: 18%
771385 (antisense e[5mC]*eA*eG*eT*e[5mC]*dT*dG*d[5mC]*dT*dG*dT*dG*dG*dA*dT*eT*eT*eG*eA*eA) [compound 771385]	25%		
771388 (antisense eG*e[5mC]*eG*e[5mC]*e[5mC]*d[5mC]*dT*dG*d[5mC]*dG*d[5mC]*dG*dG*d[5mC]*dT*e[5mC]*eT*e[5mC]*e[5mC]*eG) [compound 771388]		31%	
771389 (antisense e[5mC]*eA*e[5mC]*e[5mC]*e[5mC]*d[5mC]*dG*d[5mC]*dG*d[5mC]*dG*dG*d[5mC]*d[5mC]*d[5mC]*eG*e[5mC]*eG*e[5mC]*e[5mC]) [compound 771389]		18%	
771391 (antisense eT*e[5mC]*e[5mC]*eG*eG*d[5mC]*dT*dG*d[5mC]*d[5mC]*d[5mC]*d[5mC]*dA*d[5mC]*d[5mC]*e[5mC]*e[5mC]*eG*e[5mC]*eG) [compound 771391]	16%		
771392 (antisense e[5mC]*eT*e[5mC]*e[5mC]*eG*dG*d[5mC]*dT*dG*d[5mC]*d[5mC]*d[5mC]*d[5mC]*dA*d[5mC]*e[5mC]*e[5mC]*e[5mC]*eG*e[5mC]) [compound 771392]			% inhibition of SMAD7 mRNA expression [4]: 28%
771393 (antisense eG*e[5mC]*eT*e[5mC]*e[5mC]*dG*dG*d[5mC]*dT*dG*d[5mC]*d[5mC]*d[5mC]*d[5mC]*dA*e[5mC]*e[5mC]*e[5mC]*e[5mC]*eG) [compound 771393]	0%		
771394 (antisense e[5mC]*eG*e[5mC]*eT*e[5mC]*d[5mC]*dG*dG*d[5mC]*dT*dG*d[5mC]*d[5mC]*d[5mC]*d[5mC]*eA*e[5mC]*e[5mC]*e[5mC]*e[5mC]) [compound 771394]	10%		
771395 (antisense eG*e[5mC]*eG*e[5mC]*eT*d[5mC]*d[5mC]*dG*dG*d[5mC]*dT*dG*d[5mC]*d[5mC]*d[5mC]*e[5mC]*eA*e[5mC]*e[5mC]*e[5mC]) [compound 771395]		0%	% Inhibition of SMAD7 mRNA [1]: 34%
771396 (antisense e[5mC]*eT*eG*e[5mC]*eG*d[5mC]*dT*d[5mC]*d[5mC]*dG*dG*d[5mC]*dT*dG*d[5mC]*e[5mC]*e[5mC]*e[5mC]*eA*e[5mC]) [compound 771396]		48%	

Substance	% Inhibition [1]	% inhibition of SMAD7 mRNA expression [2]	further results
771398 (antisense eG*eG*e[5mC]*eA*eG*dG*dA*dG*d[5mC]*dG*dG*d[5mC]*dG*dG*d[5mC]*eG*eG*e[5mC]*e[5mC]*e[5mC]) [compound 771398]	48%		% inhibition of SMAD7 mRNA expression [3]: 53%
771400 (antisense e[5mC]*eG*eA*e[5mC]*eA*dG*d[5mC]*dA*dG*d[5mC]*dA*dG*d[5mC]*dA*dG*e[5mC]*eA*eG*eG*eG) [compound 771400]			% inhibition of SMAD7 mRNA expression [4]: 52%
771401 (antisense eG*e[5mC]*eA*eG*eG*d[5mC]*dG*dA*d[5mC]*dA*dG*d[5mC]*dA*dG*d[5mC]*eA*eG*e[5mC]*eA*eG) [compound 771401]	21%		
771402 (antisense e[5mC]*eA*eG*eG*e[5mC]*dG*d[5mC]*dA*dG*dG*d[5mC]*dG*dA*d[5mC]*dA*eG*e[5mC]*eA*eG*e[5mC]) [compound 771402]	31%		
771404 (antisense e[5mC]*eG*eA*eA*e[5mC]*dA*dT*dG*dA*d[5mC]*d[5mC]*dT*d[5mC]*d[5mC]*dG*e[5mC]*eA*e[5mC]*eA*e[5mC]) [compound 771404]		51%	
771405 (antisense eA*eG*e[5mC]*eG*eA*dA*d[5mC]*dA*dT*dG*dA*d[5mC]*d[5mC]*dT*d[5mC]*e[5mC]*eG*e[5mC]*eA*e[5mC]) [compound 771405]	25%		
771406 (antisense eG*eA*eG*e[5mC]*eG*dA*dA*d[5mC]*dA*dT*dG*dA*d[5mC]*d[5mC]*dT*e[5mC]*e[5mC]*eG*e[5mC]*eA) [compound 771406]			% inhibition of SMAD7 mRNA expression [4]: 55%
771408 (antisense eT*eG*e[5mC]*eT*eA*dA*dG*dG*dA*dG*d[5mC]*dG*dA*dA*d[5mC]*eA*eT*eG*eA*e[5mC]) [compound 771408]	36%		
771409 (antisense e[5mC]*e[5mC]*e[5mC]*e[5mC]*eT*dG*d[5mC]*dG*d[5mC]*d[5mC]*d[5mC]*dT*d[5mC]*d[5mC]*dT*e[5mC]*e[5mC]*eT*e[5mC]*eG) [compound 771409]		19%	% Inhibition of SMAD7 mRNA [1]: 33%
771410 (eG*e[5mC]*eT*e[5mC]*eG*d[5mC]*d[5mC]*dT*d[5mC]*d[5mC]*dT*d[5mC]*d[5mC]*dT*d[5mC]*e[5mC]*eA*e[5mC]*e[5mC]*eT; antisense) [compound 771410]		37%	
771411 (e[5mC]*e[5mC]*eT*eT*e[5mC]*dT*d[5mC]*d[5mC]*d[5mC]*d[5mC]*dG*d[5mC]*dA*dG*d[5mC]*eT*e[5mC]*eG*e[5mC]*e[5mC]; antisense) [compound 771411]		33%	
771412 (eT*e[5mC]*eG*e[5mC]*e[5mC]*d[5mC]*d[5mC]*dT*dT*d[5mC]*dT*d[5mC]*d[5mC]*d[5mC]*d[5mC]*eG*e[5mC]*eA*eG*e[5mC]; antisense) [compound 771412]	38%		% inhibition of SMAD7 mRNA expression [3]: 52%
771413 (eT*eG*eT*e[5mC]*e[5mC]*dG*dT*d[5mC]*dG*d[5mC]*d[5mC]*d[5mC]*d[5mC]*dT*dT*e[5mC]*eT*e[5mC]*e[5mC]*e[5mC]; antisense) [compound 771413]	24%		
771415 (eT*eG*e[5mC]*eG*e[5mC]*dT*d[5mC]*dG*dG*d[5mC]*dT*dG*dT*d[5mC]*d[5mC]*eG*eT*e[5mC]*eG*e[5mC]; antisense) [compound 771415]	36%		
771417 (eA*e[5mC]*e[5mC]*eG*eG*d[5mC]*d[5mC]*d[5mC]*d[5mC]*dA*dT*dG*d[5mC]*dG*d[5mC]*eT*e[5mC]*eG*eG*e[5mC]; antisense) [compound 771417]		16%	% Inhibition of SMAD7 mRNA [1]: 24%
771419 (eG*eG*e[5mC]*e[5mC]*eG*d[5mC]*d[5mC]*dG*d[5mC]*d[5mC]*dA*d[5mC]*d[5mC]*dG*dG*e[5mC]*e[5mC]*e[5mC]*e[5mC]*eA; antisense) [compound 771419]		37%	
771420 (eG*e[5mC]*e[5mC]*e[5mC]*eG*dG*dG*d[5mC]*d[5mC]*dG*d[5mC]*d[5mC]*dG*d[5mC]*d[5mC]*eA*e[5mC]*e[5mC]*eG*eG; antisense) [compound 771420]	54%		% inhibition of SMAD7 mRNA expression [3]: 1%
